{"source": "patent US20160018671A1", "about": "“DRUG DELIVERY FROM CONTACT LENSES WITH A FLUIDIC MODULE” (ONEFOCUS TECHNOLOGY, LLC, priority 2013, published 2016)", "origin": "cited, not measured here", "conditions": "contact lenses passively impregnated with the drug; for IOP reductions: compared with conventional therapy", "note": "Counter-ions that a name gives are not always drawn."}
{"compound": "CC(C)(C)NC[C@H](O)COc1nsnc1N1CCOCC1", "note": "[timolol maleate]", "values": [{"measurement": "toxicity", "result": "no toxicity"}, {"measurement": "IOP reductions", "result": "equivalent to conventional therapy"}]}
{"compound": "brimonidine tartrate", "values": [{"measurement": "toxicity", "result": "no toxicity"}, {"measurement": "IOP reductions", "result": "equivalent to conventional therapy"}]}
